Two compounds from patent US20070135997A1, “Methods for analysis of biological dataset profiles” (priority 2003, published 2007) can be followed below.

Entries after “also recorded” stand apart in the source; their conditions may differ.

This assay relates to VCAM-1 expression in human umbilical vein endothelial cells (HUVEC). Kind of assay: Cell-based ELISA of VCAM-1 expression in cytokine-stimulated, gene-transduced endothelial cells. From the text:
Cytokines, antibodies, and cell culture. Recombinant human IFN-γ, TNF-α, and IL-1βwere from R&D Systems, Murine IgG from Sigma, Mouse anti-human ICAM-1 (clone B4H10) from Beckman Coulter and mouse anti-human E-selectin (clone ENA1) from HyCult Biotechnology. Unconjugated mouse antibodies against human VCAM-1 (clone 51-10C9), CD31 (clone WM-59), HLA-DR (clone G46-6), MIG (clone B8-77), and MCP-1 (clone 5D3-F7) were from BD Biosciences. Mouse anti-human IL-8 (clone 6217.111) was from R&D Systems. PD098059 was from Calbiochem. EGM-2 medium and required supplements were from Clonetics. Human umbilical vein endothelial cells (HUVEC) were from Clonetics; cultured in microtiter plates in EGM-2 medium containing manufacturer's supplements plus 2% heat-inactivated fetal bovine serum. […] PD098059 (3.7 μM final concentration) was added 1 hr before stimulation and was present during the whole 24 hr stimulation period.
Cell-based ELISAs. Cell-based ELISAs were carried out as previously described. Briefly, microtiter plates containing treated and stimulated HUVEC were blocked, and then incubated with primary antibodies or isotype control antibodies (0.01-0.5 μg/ml) for 1 hr. After washing, plates were then incubated with a peroxidase-conjugated anti-mouse IgG secondary antibody (Promega) for 1 hr. Plates were washed and developed with TMB substrate (Clinical Science Products) and the optical density (OD) was read at 450 nm (subtracting the background absorbance at 650 nm) on a SpectraMAX 190 plate reader (Molecular Devices).
Retroviral gene transduction. Test genes were cloned into a vector derived from the MoMLV-based vector pFB (Stratagene) downstream of the MoMLV LTR. A truncated form of the human nerve growth factor receptor (NGFR) preceded by an internal ribosomal entry site was used as a marker gene. Retroviral vector plasmid DNA was transfected into AmphoPack-293 cells (Clontech) by a modified calcium phosphate method according to the manufacturer's protocol (MBS transfection kit, Stratagene). Cell supernatants were harvested 48 hours post-transfection, filtered to remove cell debris (0.45 μm), and transferred onto exponentially growing HUVEC. DEAE dextran (10 μg/ml) was added to facilitate transduction. After 5-8 hr, the viral supernatant was removed and cells were cultured for an additional 40 hours. Gene transfer efficiency was determined by flow cytometric analysis using an NGFR-specific monoclonal antibody and was typically ≧70%.
In general terms: An ELISA detects its analyte on a solid surface through an enzyme-linked reagent.

For “IL-1β: Recombinant human IL-1β from R&D Systems, pro-inflammatory cytokine”, the “Effect of IL-1β on TNF-induced VCAM-1 expression” value is, setting by setting: (HUVEC stimulated with 10 ng/ml TNF + 1 ng/ml IL-1) “reduce the level of VCAM-1 expression”; (HUVEC stimulated with 10 ng/ml TNF + 1 ng/ml IL-1, listed as IL-1) “modulates the VCAM-1 expression induced by TNF”.
As for `COc1cccc(-c2cc(=O)c3ccccc3o2)c1N` [PD098059], the “Effect on VCAM-1 expression when the RAS/MAPK pathway is activated” value (HUVEC over-expressing MYD88, RAS*, MEK1* or MEK2* or IL-1β-stimulated, PD098059 3.7 μM added 1 hr before 24 hr cytokine stimulation) is listed as “reversed the effect of MYD88 or RAS* over-expression; also recorded: increases VCAM-1 expression”. For the same compound, under “HUVEC treated with TNF-α, PD098059 3.7 μM added 1 hr before 24 hr stimulation”, the “Effect on VCAM-1 expression in TNF-α-treated cells” value is “no effect”.
